Laboratory results published in ChEMBL document CHEMBL4411333, “Optimization of Fused Bicyclic Allosteric SHP2 Inhibitors” (J Med Chem, 2019).
Calls of active or inactive are those of the source. The rule behind the calls is not given here.

How the values were obtained:
[1] = system: KYSE-520 cell line; test: Antiproliferative activity against human KYSE520 cells after 5 days by Celltiter-Glo reagent-based assay; settings: KYSE-520, 5 days
[2] = biological target: T1, Tyrosine-protein phosphatase non-receptor type 11 (Homo sapiens, UniProt Q06124); test: Inhibition of SHP2 in human KYSE520 cells assessed as suppression of ERK phosphorylation after 2 hrs by AlphaScreen SureFire Phospho-ERK1/2 assay; type: cell-based
T1 sequence (Q06124 whole entry): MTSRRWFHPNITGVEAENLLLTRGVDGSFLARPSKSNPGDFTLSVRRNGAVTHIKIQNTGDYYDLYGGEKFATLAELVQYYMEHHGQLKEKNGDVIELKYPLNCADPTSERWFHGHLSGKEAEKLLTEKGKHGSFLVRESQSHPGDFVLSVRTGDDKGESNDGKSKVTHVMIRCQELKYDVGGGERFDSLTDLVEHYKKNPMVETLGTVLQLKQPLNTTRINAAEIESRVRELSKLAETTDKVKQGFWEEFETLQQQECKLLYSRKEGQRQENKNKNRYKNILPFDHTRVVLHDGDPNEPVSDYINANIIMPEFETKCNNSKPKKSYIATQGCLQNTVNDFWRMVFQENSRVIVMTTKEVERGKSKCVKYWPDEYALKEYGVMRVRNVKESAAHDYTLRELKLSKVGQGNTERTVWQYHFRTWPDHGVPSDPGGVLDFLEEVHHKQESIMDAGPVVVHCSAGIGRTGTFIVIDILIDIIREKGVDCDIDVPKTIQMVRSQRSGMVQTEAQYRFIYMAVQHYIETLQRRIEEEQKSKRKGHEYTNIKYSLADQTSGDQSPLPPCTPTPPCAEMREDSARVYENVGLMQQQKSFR

[3] = organism: Mus musculus; settings: 100 mg/kg
[4] = Terminal half life in Sprague-Dawley rat at 1 mg/kg, iv or 5 mg/kg, po; type: ADME, organism-based; settings: in vivo, read-out: beta t1/2 (converted)
[5] = Oral bioavailability in Sprague-Dawley rat at 5 mg/kg; type: ADME, organism-based; settings: in vivo
[6] = organism: Mus musculus; settings: 100 mg/kg; remark: listed apart in the source
[7] = Volume of distribution in Sprague-Dawley rat at 1 mg/kg, iv or 5 mg/kg, po; type: ADME, organism-based; settings: in vivo
[8] = biological target: Voltage-gated inwardly rectifying potassium channel KCNH2 (Homo sapiens, UniProt Q12809)
Chain of Voltage-gated inwardly rectifying potassium channel KCNH2 (Q12809 whole entry, the tested form may be a part): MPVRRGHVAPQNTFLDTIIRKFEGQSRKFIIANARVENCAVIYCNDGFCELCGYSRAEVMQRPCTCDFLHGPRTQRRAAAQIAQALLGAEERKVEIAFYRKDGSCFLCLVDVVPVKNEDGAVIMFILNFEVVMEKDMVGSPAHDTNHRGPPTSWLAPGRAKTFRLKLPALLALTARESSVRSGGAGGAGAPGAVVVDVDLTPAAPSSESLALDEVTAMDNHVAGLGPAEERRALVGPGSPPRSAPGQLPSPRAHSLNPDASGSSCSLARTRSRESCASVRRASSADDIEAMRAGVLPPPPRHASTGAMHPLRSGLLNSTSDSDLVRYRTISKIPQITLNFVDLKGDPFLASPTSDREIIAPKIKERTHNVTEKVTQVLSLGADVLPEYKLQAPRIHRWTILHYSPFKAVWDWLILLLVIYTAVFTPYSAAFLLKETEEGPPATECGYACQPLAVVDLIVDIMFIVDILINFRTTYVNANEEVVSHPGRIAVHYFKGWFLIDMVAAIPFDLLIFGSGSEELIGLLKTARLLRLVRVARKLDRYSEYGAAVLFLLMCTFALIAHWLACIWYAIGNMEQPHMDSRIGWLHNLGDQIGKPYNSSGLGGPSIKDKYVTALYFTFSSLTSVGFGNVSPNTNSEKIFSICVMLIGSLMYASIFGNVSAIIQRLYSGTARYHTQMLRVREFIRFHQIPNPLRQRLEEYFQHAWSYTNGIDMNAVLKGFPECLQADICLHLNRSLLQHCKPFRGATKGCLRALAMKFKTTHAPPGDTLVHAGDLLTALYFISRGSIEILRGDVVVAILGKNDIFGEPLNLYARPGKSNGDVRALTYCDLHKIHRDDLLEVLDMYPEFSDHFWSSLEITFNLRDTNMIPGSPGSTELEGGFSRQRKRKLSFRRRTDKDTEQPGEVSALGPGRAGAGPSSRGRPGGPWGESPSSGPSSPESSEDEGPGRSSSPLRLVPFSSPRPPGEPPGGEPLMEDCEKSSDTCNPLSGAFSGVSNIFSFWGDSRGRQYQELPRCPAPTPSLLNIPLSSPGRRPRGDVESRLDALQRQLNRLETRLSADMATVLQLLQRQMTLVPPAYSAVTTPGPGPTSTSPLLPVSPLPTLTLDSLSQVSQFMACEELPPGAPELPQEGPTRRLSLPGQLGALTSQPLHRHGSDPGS

[9] = biological target: T1, Tyrosine-protein phosphatase non-receptor type 11; test: Inhibition of human 6His-tagged SHP2 (2 to 593 residues) expressed in Escherichia coli BL21 Star (DE3) using DiFMUP as substrate preincubated for 30 mins followed by substrate addition by fluorescence assay
[10] = biological target: T2, Tyrosine-protein phosphatase non-receptor type 11 (Homo sapiens) (UniProt Q06124); test: Inhibition of SHP2 (unknown origin) at 40 uM
T2 sequence (whole entry): T1 sequence (Q06124 whole entry)

[11] = biological target: T2, Tyrosine-protein phosphatase non-receptor type 11 (Homo sapiens); test: Stabilization of SHP2 (unknown origin) assessed as thermal denaturation by measuring change in melting temperature at 100 uM by differential scanning fluorimetry
[12] = Clearance in Sprague-Dawley rat at 1 mg/kg, iv or 5 mg/kg, po relative to hepatic extraction; type: ADME, organism-based; settings: in vivo
[13] = Half life in rat liver microsomes; type: ADME, Microsome
[14] = Clearance in rat liver microsomes; type: ADME, Microsome; settings: read-out: CLH

| SMILES | IC50 [1] [nM] | IC50 [2] [nM] | IC50 [8] [nM] | further results |
| --- | --- | --- | --- | --- |
| Cn1c(N2CCC3(CC2)COC[C@H]3N)nc2[nH]nc(-c3cccc(Cl)c3Cl)c2c1=O | 1730 | 123 |  |  |
| C[C@@H]1OCC2(CCN(c3nc4[nH]nc(-c5cccc(Cl)c5Cl)c4c(=O)n3C)CC2)[C@@H]1N | 167 |  |  | inhibition [3]: Active; half-life [4]: 4.6 h; bioavailability [5]: 51%; inhibition [6]: Active; Vd [7]: 10.5 L/kg |
| C[C@@H]1OCC2(CCN(c3cnc4c(-c5cccc(Cl)c5Cl)n[nH]c4n3)CC2)[C@@H]1N | 460 |  |  |  |
| C[C@@H]1OCC2(CCN(c3nc4[nH]nc(-c5ccnc(Cl)c5Cl)c4c(=O)n3C)CC2)[C@@H]1N | 2600 |  |  |  |
| Cn1c(N2CCC(C)(CN)CC2)nc2[nH]nc(-c3cccc(Cl)c3Cl)c2c1=O | 13500 |  |  |  |
| C[C@@H]1OCC2(CCN(c3nc4[nH]nc(-c5ccnc(N)c5Cl)c4c(=O)n3C)CC2)[C@@H]1N | 1200 | 103 | > 30000 | IC50 [9]: 32 nM |
| Cn1c(N2CCC3(CCC[C@H]3N)CC2)nc2n[nH]c(-c3cccc(Cl)c3Cl)c2c1=O | 465 | 30 | 250 | IC50 [9]: 31 nM |
| C[C@@H]1OCC2(CCN(c3cnc4c(-c5cccc(Cl)c5Cl)c[nH]c4n3)CC2)[C@@H]1N |  | 484 | 7 |  |
| C[C@@H]1OCC2(CCN(c3nc4[nH]nc(-c5ccncc5)c4c(=O)n3C)CC2)[C@@H]1N | 1260 | 129 | > 30000 |  |
| Cc1nc(N)ccc1-c1n[nH]c2nc(N3CCC4(CC3)CO[C@@H](C)[C@H]4N)n(C)c(=O)c12 | 660 | 38 | 6600 |  |
| CN(C)Cc1ccc(-c2cc3onc(-c4ccccc4Cl)c3c(=O)n2C)cc1 |  |  |  | inhibition [10]: 31%; ΔTm [11]: 0.67 °C |
| CNc1nccc(-c2n[nH]c3nc(N4CCC5(CC4)CO[C@@H](C)[C@H]5N)n(C)c(=O)c23)c1Cl | 370 | 22 | > 30000 | IC50 [9]: 55 nM |
| C[C@@H]1OCC2(CCN(c3nc4[nH]nc(Sc5ccnc(N)c5Cl)c4c(=O)n3C)CC2)[C@@H]1N | 720 | 96 | > 30000 |  |
| C[C@@H]1OCC2(CCN(c3nc4[nH]nc(-c5ccnc(NC6CC6)c5Cl)c4c(=O)n3C)CC2)[C@@H]1N | 360 |  |  | CL [12]: 83%; half-life [4]: 2.7 h; bioavailability [5]: 2%; half-life [13]: 0.887 h; microsomal CLint [14]: 26.1 µL/min/mg; Vd [7]: 3.9 L/kg |
| C[C@@H]1OCC2(CCN(c3nc4[nH]nc(-c5ccnc(NC6CCC6)c5Cl)c4c(=O)n3C)CC2)[C@@H]1N | 380 | 260 | 1900 | IC50 [9]: 350 nM |
| Cc1ccc(-c2cc(C(=O)O)c3c(-c4ccc(Br)cc4)n[nH]c3n2)cc1 |  |  |  | inhibition [10]: 30%; ΔTm [11]: 0.62 °C |
